Patent US8017612B2, “Piperazine compound and use thereof as a HCV polymerase inhibitor” (priority 2006, dated 2011)
Where a name gives a salt, the structure may show the parent alone.

Tests used:
[1] = biological target: T1, HCV polymerase (NS5B) type 1b (Hepatitis C virus genotype 1b, UniProt P26663); assay: Assay of enzyme (HCV polymerase) inhibitory activity, type 1b enzyme; type: biochemical, HCV BK strain (type 1b); conditions: HCV polymerase inhibitory activity (IC50), 1b, type 1b enzyme 0.5 μg/ml, 25° C., 60 min
T1 construct: a region encoding NS5B (J Virol 1991 March, 65(3), 1105-13, 544 amino acids after deletion of 47 amino acids on the C-terminal); 6xHis (C); made in house; host or cells: Escherichia coli
In short: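 IC50 derived from [3H]UTP incorporation into TCA-insoluble RNA, compared with and without test compound. Reaction (25 °C, 60 min, Tris pH 7.5, 5 mM MgCl2): E. coli-expressed 1b NS5B Δ47 with His tag at 0.5 μg/ml, 5 μg/ml run-off substrate RNA, ATP/GTP/CTP 50 μM, UTP 2 μM.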

[2] = biological target: T2, HCV polymerase (NS5B) type 1a (Hepatitis C virus genotype 1a, UniProt P26664); assay: Assay of enzyme (HCV polymerase) inhibitory activity, type 1a enzyme; type: biochemical, HCV type 1a (cloned from the blood of patients); conditions: HCV polymerase inhibitory activity (IC50), 1a, type 1a enzyme 1.5 μg/ml, 25° C., 60 min
T2 construct: made in house; host or cells: Escherichia coli (by the 'similar method' of the 1b enzyme)
In short: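 Reactions ran 60 min at 25° C in 20 mM Tris-HCl pH 7.5, 5 mM MgCl2, 50 mM NaCl, holding genotype 1a NS5B (1.5 μg/ml, Δ47 C-terminus, 6His), substrate RNA 5 μg/ml, UTP 2 μM with tritiated UTP and other NTPs 50 μM. IC50 derived from incorporated radiolabel in filter-trapped RNA relative to uninhibited reaction.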

Row | SMILES | IC50 [1] [nM] | IC50 [2] [nM]
1 | CC(C)c1ccc(CNC(=O)[C@H]2CN(C(=O)Nc3cccc(OCC(=O)O)c3)CCN2S(=O)(=O)c2ccc(C(F)(F)F)cc2)cc1 [Example 260, (3-{[(R)-3-(4-isopropyl-benzylcarbamoyl)-4-(4-trifluoromethyl-benzenesulfonyl)-piperazine-1-carbonyl]-amino}-phenoxy)-acetic acid] | 100 to 1000 | 100 to 1000
2 | CC(C)c1ccc(CNC(=O)[C@H]2CN(C(=O)Cc3nnn[nH]3)CCN2S(=O)(=O)c2ccc(C(F)(F)F)cc2)cc1 [Example 261, (R)-4-(2-1H-tetrazol-5-yl-acetyl)-1-(4-trifluoromethyl-benzenesulfonyl)-piperazine-2-carboxylic acid 4-isopropyl-benzylamide] | 100 to 1000 | > 1000
3 | CN(C)c1ccc(CNC(=O)[C@H]2CN(C(=O)CN)CCN2S(=O)(=O)c2ccc(C(F)(F)F)cc2)cc1 [Example 262, (R)-4-(2-amino-acetyl)-1-(4-trifluoromethyl-benzenesulfonyl)-piperazine-2-carboxylic acid 4-dimethylamino-benzylamide dihydrochloride] | > 1000 | > 1000
4 | CC(=O)N1CCN(S(=O)(=O)c2cccc(C(F)(F)F)c2)[C@@H](C(=O)NCc2ccc(C(C)C)cc2)C1 [Example 263, (R)-4-acetyl-1-(3-trifluoromethyl-benzenesulfonyl)-piperazine-2-carboxylic acid 4-isopropyl-benzylamide] | 100 to 1000 | 100 to 1000
5 | CC(=O)N1CCN(S(=O)(=O)c2ccc3c(c2)CCCCC3)[C@@H](C(=O)NCc2ccc(C(C)C)cc2)C1 [Example 264, (R)-4-acetyl-1-(6,7,8,9-tetrahydro-5H-benzocycloheptene-2-sulfonyl)-piperazine-2-carboxylic acid 4-isopropyl-benzylamide] | < 100 | < 100
6 | CC(C)c1ccc(CNC(=O)[C@H]2CN(C(=O)NS(=O)(=O)c3ccccc3)CCN2S(=O)(=O)c2ccc(C(F)(F)F)cc2)cc1 [Example 265, (R)-4-benzenesulfonylaminocarbonyl-1-(4-trifluoromethyl-benzenesulfonyl)-piperazine-2-carboxylic acid 4-isopropyl-benzylamide] | > 1000 | > 1000
7 | COc1ccc(CC(=O)N2CCN(S(=O)(=O)c3ccc(C(F)(F)F)cc3)[C@@H](C(=O)NCc3ccc(C(C)C)cc3)C2)cc1 [Example 266, (R)-4-[2-(4-methoxy-phenyl)-acetyl]-1-(4-trifluoromethyl-benzenesulfonyl)-piperazine-2-carboxylic acid 4-isopropyl-benzylamide] | 100 to 1000 | 100 to 1000
8 | COc1ccccc1CC(=O)N1CCN(S(=O)(=O)c2ccc(C(F)(F)F)cc2)[C@@H](C(=O)NCc2ccc(C(C)C)cc2)C1 [Example 267, (R)-4-[2-(2-methoxy-phenyl)-acetyl]-1-(4-trifluoromethyl-benzenesulfonyl)-piperazine-2-carboxylic acid 4-isopropyl-benzylamide] | 100 to 1000 | > 1000
9 | COc1cccc(CC(=O)N2CCN(S(=O)(=O)c3ccc(C(F)(F)F)cc3)[C@@H](C(=O)NCc3ccc(C(C)C)cc3)C2)c1 [Example 268, (R)-4-[2-(3-methoxy-phenyl)-acetyl]-1-(4-trifluoromethyl-benzenesulfonyl)-piperazine-2-carboxylic acid 4-isopropyl-benzylamide] | 100 to 1000 | > 1000
10 | CC(C)c1ccc(CNC(=O)[C@H]2CN(C(=O)Nc3ccccc3Cl)CCN2S(=O)(=O)c2ccc(C(F)(F)F)cc2)cc1 [Example 269, (R)-4-(4-trifluoromethyl-benzenesulfonyl)-piperazine-1,3-dicarboxylic acid 1-[(2-chloro-phenyl)-amide] 3-(4-isopropyl-benzylamide)] | > 1000 | > 1000
11 | CC(C)c1ccc(CNC(=O)[C@H]2CN(C(=O)Nc3cccc(Cl)c3)CCN2S(=O)(=O)c2ccc(C(F)(F)F)cc2)cc1 [Example 270, (R)-4-(4-trifluoromethyl-benzenesulfonyl)-piperazine-1,3-dicarboxylic acid 1-[(3-chloro-phenyl)-amide] 3-(4-isopropyl-benzylamide)] | 100 to 1000 | > 1000
12 | CC(C)c1ccc(CNC(=O)[C@H]2CN(C(=O)Nc3ccc(Cl)cc3)CCN2S(=O)(=O)c2ccc(C(F)(F)F)cc2)cc1 [Example 271, (R)-4-(4-trifluoromethyl-benzenesulfonyl)-piperazine-1,3-dicarboxylic acid 1-[(4-chloro-phenyl)-amide] 3-(4-isopropyl-benzylamide)] | > 1000 | > 1000
13 | COc1ccccc1NC(=O)N1CCN(S(=O)(=O)c2ccc(C(F)(F)F)cc2)[C@@H](C(=O)NCc2ccc(C(C)C)cc2)C1 [Example 272, (R)-4-(4-trifluoromethyl-benzenesulfonyl)-piperazine-1,3-dicarboxylic acid 3-(4-isopropyl-benzylamide) 1-[(2-methoxy-phenyl)-amide]] | 100 to 1000 | > 1000
14 | COc1cccc(NC(=O)N2CCN(S(=O)(=O)c3ccc(C(F)(F)F)cc3)[C@@H](C(=O)NCc3ccc(C(C)C)cc3)C2)c1 [Example 273, (R)-4-(4-trifluoromethyl-benzenesulfonyl)-piperazine-1,3-dicarboxylic acid 3-(4-isopropyl-benzylamide) 1-[(3-methoxy-phenyl)-amide]] | 100 to 1000 | > 1000
15 | CC(C)c1ccc(CNC(=O)[C@H]2CN(C(=O)CNC(=O)CCC(=O)O)CCN2S(=O)(=O)c2ccc(C(F)(F)F)cc2)cc1 [Example 274, N-{2-[(R)-3-(4-isopropyl-benzylcarbamoyl)-4-(4-trifluoromethyl-benzenesulfonyl)-piperazin-1-yl]-2-oxo-ethyl}-succinamic acid] | 100 to 1000 | > 1000
16 | COC(=O)c1cccc(NC(=O)N2CCN(S(=O)(=O)c3ccc(C(F)(F)F)cc3)[C@@H](C(=O)NCc3ccc(C(C)C)cc3)C2)c1 [Example 275, 3-{[(R)-3-(4-isopropyl-benzylcarbamoyl)-4-(4-trifluoromethyl-benzenesulfonyl)-piperazine-1-carbonyl]-amino}-benzoic acid methyl ester] | 100 to 1000 | 100 to 1000
17 | COC(=O)c1ccc(NC(=O)N2CCN(S(=O)(=O)c3ccc(C(F)(F)F)cc3)[C@@H](C(=O)NCc3ccc(C(C)C)cc3)C2)cc1 [Example 276, 4-{[(R)-3-(4-isopropyl-benzylcarbamoyl)-4-(4-trifluoromethyl-benzenesulfonyl)-piperazine-1-carbonyl]-amino}-benzoic acid methyl ester] | 100 to 1000 | 100 to 1000
18 | COc1ccc(NC(=O)N2CCN(S(=O)(=O)c3ccc(C(F)(F)F)cc3)[C@@H](C(=O)NCc3ccc(C(C)C)cc3)C2)cc1 [Example 277, (R)-4-(4-trifluoromethyl-benzenesulfonyl)-piperazine-1,3-dicarboxylic acid 3-(4-isopropyl-benzylamide) 1-[(4-methoxy-phenyl)-amide]] | 100 to 1000 | > 1000
19 | CC(C)c1ccc(CNC(=O)[C@H]2CN(C(=O)Cn3ncnn3)CCN2S(=O)(=O)c2ccc(C(F)(F)F)cc2)cc1 [Example 278, (R)-4-(2-tetrazol-2-yl-acetyl)-1-(4-trifluoromethyl-benzenesulfonyl)-piperazine-2-carboxylic acid 4-isopropyl-benzylamide] | < 100 | < 100
20 | COCC(=O)N1CCN(S(=O)(=O)c2ccc(C(F)(F)F)cc2)[C@@H](C(=O)NCc2ccc(C(C)C)cc2)C1 [Example 279, (R)-4-(2-methoxy-acetyl)-1-(4-trifluoromethyl-benzenesulfonyl)-piperazine-2-carboxylic acid 4-isopropyl-benzylamide] | 100 to 1000 | 100 to 1000
21 | CC(=O)N1CCN(S(=O)(=O)c2ccc(C(C)C)cc2)[C@@H](C(=O)NCc2ccc(C3CC3)cc2)C1 [Example 280, 4-acetyl-1-(4-isopropyl-benzenesulfonyl)-piperazine-2-carboxylic acid 4-cyclopropyl-benzylamide] | 100 to 1000 | 100 to 1000
22 | CCCc1ccc(S(=O)(=O)N2CCN(C(=O)Nc3cccc(OCC(=O)OCC)c3)C[C@@H]2C(=O)NCc2ccc(C(C)C)cc2)cc1 [Example 281, (3-{[(R)-3-(4-isopropyl-benzylcarbamoyl)-4-(4-propyl-benzenesulfonyl)-piperazine-1-carbonyl]-amino}-phenoxy)-acetic acid ethyl ester] | < 100 | 100 to 1000
23 | CCCc1ccc(S(=O)(=O)N2CCN(C(=O)Nc3cccc(OCC(=O)O)c3)C[C@@H]2C(=O)NCc2ccc(C(C)C)cc2)cc1 [Example 282, (3-{[(R)-3-(4-isopropyl-benzylcarbamoyl)-4-(4-propyl-benzenesulfonyl)-piperazine-1-carbonyl]-amino}-phenoxy)-acetic acid] | < 100 | 100 to 1000
24 | CC(=O)N1CCN(S(=O)(=O)c2ccc(CCC(=O)O)s2)[C@@H](C(=O)NCc2ccc(C(C)C)cc2)C1 [Example 283, 3-{5-[(R)-4-acetyl-2-(4-isopropyl-benzylcarbamoyl)-piperazine-1-sulfonyl]-thiophen-2-yl}-propionic acid] | > 1000 | > 1000
